We go through ten molecules from patent US20140051679A1, “KINASE INHIBITORS AND METHOD OF TREATING CANCER WITH SAME” (UNIVERISTY HEALTH NETWORKS, priority 2011, published 2014).

The IC50 is the concentration at which inhibition is half-maximal. Usually GI50 stands for the concentration giving 50% growth inhibition.

In one experiment the target is T1, human TTK (Homo sapiens, UniProt P33981).
T1 construct: amino terminal GST fusion of full length human TTK; purchased Invitrogen
T1 sequence (P33981 1-857): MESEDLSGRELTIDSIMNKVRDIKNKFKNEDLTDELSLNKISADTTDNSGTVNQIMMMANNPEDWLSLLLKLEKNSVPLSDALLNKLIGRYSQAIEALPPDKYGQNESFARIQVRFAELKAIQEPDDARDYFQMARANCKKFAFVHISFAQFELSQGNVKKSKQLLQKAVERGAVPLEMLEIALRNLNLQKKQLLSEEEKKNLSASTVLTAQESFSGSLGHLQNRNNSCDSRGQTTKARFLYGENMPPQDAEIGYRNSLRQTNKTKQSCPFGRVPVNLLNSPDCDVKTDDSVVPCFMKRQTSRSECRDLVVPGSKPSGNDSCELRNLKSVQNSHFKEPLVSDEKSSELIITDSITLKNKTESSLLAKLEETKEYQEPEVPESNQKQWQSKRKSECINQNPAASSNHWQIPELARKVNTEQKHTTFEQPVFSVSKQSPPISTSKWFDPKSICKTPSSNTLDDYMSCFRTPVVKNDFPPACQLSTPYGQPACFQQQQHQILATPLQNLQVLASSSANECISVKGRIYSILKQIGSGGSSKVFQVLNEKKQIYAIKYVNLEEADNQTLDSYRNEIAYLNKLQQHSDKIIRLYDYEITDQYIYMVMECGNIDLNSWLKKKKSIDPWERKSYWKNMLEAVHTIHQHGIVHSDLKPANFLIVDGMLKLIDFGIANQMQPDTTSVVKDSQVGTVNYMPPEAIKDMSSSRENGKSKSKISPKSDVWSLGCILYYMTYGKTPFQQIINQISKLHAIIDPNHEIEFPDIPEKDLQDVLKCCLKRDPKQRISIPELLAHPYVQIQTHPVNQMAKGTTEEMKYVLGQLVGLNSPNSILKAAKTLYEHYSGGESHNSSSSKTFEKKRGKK
Description: TTK inhibition assay (indirect ELISA). The conditions noted are these: GST-TTK 0.68 nM, 16 μM ATP; read-out: IC50 Ranges TTK. Format: biochemical. (In an ELISA, binding on a coated surface is turned into a signal by an enzyme label.)

The target of a further experiment is T2, human PLK4 (Homo sapiens, UniProt O00444).
T2 construct: amino terminal GST fusion of residues 1-391 of human PLK4; made in house; host or cells: E. coli
T2 sequence (O00444 1-391): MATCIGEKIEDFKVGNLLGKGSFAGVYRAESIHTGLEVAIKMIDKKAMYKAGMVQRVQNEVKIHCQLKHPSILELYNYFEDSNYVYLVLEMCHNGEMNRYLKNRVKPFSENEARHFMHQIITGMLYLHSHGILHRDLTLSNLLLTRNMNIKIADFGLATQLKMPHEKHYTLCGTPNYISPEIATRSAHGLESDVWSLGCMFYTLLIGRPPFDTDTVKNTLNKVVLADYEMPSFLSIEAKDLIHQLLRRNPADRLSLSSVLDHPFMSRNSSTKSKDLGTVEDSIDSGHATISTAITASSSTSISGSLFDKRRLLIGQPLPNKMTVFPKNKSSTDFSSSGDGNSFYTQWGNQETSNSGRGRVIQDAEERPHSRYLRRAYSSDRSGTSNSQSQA
Put plainly: PLK4 inhibition assay (indirect ELISA). Format: biochemical. The conditions noted are these: GST-PLK4 4 nM, 15 μM ATP; read-out: IC50 Ranges PLK4. Put shortly:
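Compounds were tested either at a single 10 μM dose or across 10-point titrations (typically 0.5 to 0.001 μM), preincubated 15 min with 4 nM GST-PLK4 (human 1-391, dephosphorylated) before 15 μM ATP was added. MBP substrate phosphorylation over 30 min, pH 7.5 HEPES/MgCl2 buffer, read by HRP/TMB ELISA (450 nm). % inhibition vs. high-activity control; IC50 by logistic fit.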

A further experiment has as its target T3, Aurora B (Homo sapiens, UniProt Q96GD4).
T3 construct: purchased Invitrogen PV3970
Put plainly: Aurora B inhibition assay (Z-Lyte). Format: biochemical. The conditions noted are these: 28 nM Aurora B, 128 μM ATP; read-out: IC50 Ranges Aurora B. How it is done: Aurora B inhibition was determined using the Z-Lyte assay kit from Invitrogen. The assay was performed using the recommended manufacturer's instructions with 128 μM ATP and 28 nM Aurora B (Invitrogen cat #PV3970). The % inhibition values were determined according to the manufacturer's directions and IC50 values were obtained using a non-linear 4 point logistic curve fit (XLfit4, IDBS)

In experiment [1] the test system is MDA-MB-231 breast cancer cells. Description: Cell growth inhibition, Sulforhodamine B assay, MDA-MB-231. The conditions noted are these: Homo sapiens, 120 h, 5 days culture, SRB assay, read-out: Cell Line GI50 Range MDA-MB-231. Format: cell-based. (In general: The SRB assay estimates cell density from bound dye.)
Experiment [2] deals with MDA-MB-468 breast cancer cells. Description: Cell growth inhibition, Sulforhodamine B assay, MDA-MB-468. The conditions noted are these: Homo sapiens, 120 h, 5 days culture, SRB assay, read-out: Cell Line GI50 Range MDA-MB-468. It counts as cell-based.
Description: (§1) Breast cancer cells (MDA-MB-231, MDA-MB-468), colon cancer cells (HCT116, HT29) and ovarian cancer cells (PA-1, OVCAR-3) were seeded (1000 to 4000 in 80 μl per well depending on the cell growth rate) into 96 well plates 24 hours before compound overlay. Compounds were prepared as 10 mM stock solutions in 100% DMSO which were diluted with DMEM (Dulbecco's Modified Eagle's Medium) cell growth Medium (Invitrogen, Burlington, ON, Canada) containing 10% FBS (Fetal Bovine Serum) to concentrations ranging from 50 nM to 250 μM. Aliquots (20 μl) from each concentration were overlaid to 80 μl of the pre-seeded cells in the 96 well plates to make final concentrations of 10 nM to 50 μM. The cells were cultured for 5 days before the Sulforhodamine B assay (SRB) was performed to determine the compound's cell growth inhibition activity.
(§2) Sulforhodamine B (purchased from Sigma, Oakville, ON, Canada) is a water-soluble dye that binds to the basic amino acids of the cellular proteins. Thus, colorimetric measurement of the bound dye provides an estimate of the total protein mass that is related to the cell number. the cells are fixed in situ by gently aspirating off the culture media and adding 50 μl ice cold 10% Trichloroacetic Acid (TCA) per well and incubate at 4° C. for 30-60 min, The plates are washed with water five times and allowed to air dry for 5 min. Addition of 50 μl 0.4% (w/v) SRB solution in 1% (v/v) acetic acid to each well and incubatation for 30 min at RT completes the staining reaction. Following staining, plates are washed four times with 1% acetic acid to remove unbound dye and then allowed to air dry for 5 min. The stain is solubilized with 100 μl of 10 mM Tris pH 10.5 per well. Absorbance is read at 570 nm.
(§3) The percentage (%) of relative growth inhibition was calculated by comparing to DMSO treated only cells (100%). […] The GI50 was calculated using GraphPad PRISM software (GraphPad Software, Inc., San Diego, Calif., USA).
Experiment [3] deals with HCT116 colon cancer cells. Description: Cell growth inhibition, Sulforhodamine B assay, HCT116. It counts as cell-based. The conditions noted are these: Homo sapiens, HCT-116, 120 h, 5 days culture, SRB assay, read-out: Cell Line GI50 Range HCT116.
For a further experiment, the system named is HT29 colon cancer cells. Put plainly: Cell growth inhibition, Sulforhodamine B assay, HT29. The conditions noted are these: Homo sapiens, HT-29, 120 h, 5 days culture, SRB assay, read-out: Cell Line GI50 Range HT29. Format: cell-based.
The subject of experiment [4] is OVCAR-3 ovarian cancer cells. Description: Cell growth inhibition, Sulforhodamine B assay, OVCAR-3. Format: cell-based. The conditions noted are these: Homo sapiens, 120 h, 5 days culture, SRB assay, read-out: Cell Line GI50 Range OVCAR-3.
Description: as §1, §2, §3
The test system of experiment [5] is Colon tumor initiating cells (TICs), 12 colon. Description: Colon tumor-initiating cell growth inhibition (Alamar Blue). It counts as cell-based. The conditions noted are these: 216 h, 9 days, read-out: GI50 range 12 colon. (In general: Resazurin is reduced to fluorescent resorufin, in cell work by metabolically active cells.)
Description: (§4) Materials and Methods: Non-tissue or tissure cultured treated T-75 flask and 96-well plates were purchased from VWR. Vitamin B-27 supplement, MEM NEAA (minimum essential medium non essential amino acids), sodium pyruvate, L-glutamine, N2 supplement, penicillin-streptomycin and fungizone/amphotericin B were obtained from Invitrogen. Lipid mixture, heparin and EGF were purchased from Sigma; bFGF from BD Biosciences. Colon tumor initiating cells (TICs) were routinely maintained using non-tissue cultured treated T-75 flasks in DMEM:F12 medium containing 0.2XB-27 supplement, 4 ug/ml heparin, 1XMEM NEAA, 1× sodium pyruvate, 1 mM glutamine, 10 pg/ul bFGF, 20 pg/ul EGF, 1×N2 supplement, lipid mixture, penicillin-streptomycin and fungizone/amphotericin B. Ovarian TICs were routinely maintained using tissue cultured treated T-75 flasks in DMEM:F12 medium containing 1XB-27 supplement, 4 ug/ml heparin, 20 pg/ul bFGF, 20 pg/ul EGF and penicillin-streptomycin.
(§5) Compounds described herein were dissolved in DMSO and further diluted in cell culture medium for GI50 determination. Colon TICs were trypsinized and seeded into non-tissue cultured treated 96-well plates with 4,000 cells/well. After 24 h, compound was added into the cell culture at different concentrations, and the final concentration of DMSO was adjusted to 0.1%. Cells were then cultured at 37° C. for 9 days. Ovarian TICs were trypsinized and seeded into tissue cultured treated 96-well plates with 1,000 cells/well. After 24 h, compound was added into the cell culture at different concentrations, and the final concentration of DMSO was adjusted to 0.1%. Cells were then cultured at 37° C. for 6 days. Cell viability was assessed by Alamar Blue assay: 10 ul of Alamar Blue was added into each well. After 4 hours incubation at 37° C., fluorescence was recorded at excitation 544 and emission 590. GI50 (Growth inhibition) was calculated using GraphPad Prism 4.0 software.
Experiment [6] deals with Ovarian TICs, 2393A ovarian. Description: Ovarian tumor-initiating cell growth inhibition (Alamar Blue). It counts as cell-based. The conditions noted are these: 144 h, 6 days, read-out: GI50 range 2393A ovarian.
Description: as §4, §5
In experiment [7] the test system is PA-1 ovarian cancer cells. Put plainly: Cell growth inhibition, Sulforhodamine B assay, PA-1. Format: cell-based. The conditions noted are these: 120 h, 5 days culture, SRB assay, read-out: Cell Line GI50 Range PA-1.

T3 sequence (Q96GD4 whole entry): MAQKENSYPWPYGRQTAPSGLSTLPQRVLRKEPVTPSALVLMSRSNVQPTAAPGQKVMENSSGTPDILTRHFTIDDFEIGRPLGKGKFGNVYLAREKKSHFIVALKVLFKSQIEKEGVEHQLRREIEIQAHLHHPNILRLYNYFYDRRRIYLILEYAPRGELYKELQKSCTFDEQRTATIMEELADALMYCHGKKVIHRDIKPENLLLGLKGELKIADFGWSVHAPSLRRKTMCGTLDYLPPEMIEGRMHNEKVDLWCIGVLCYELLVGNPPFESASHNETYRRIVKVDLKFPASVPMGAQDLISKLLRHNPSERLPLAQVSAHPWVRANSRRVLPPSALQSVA

Take `O=C(Nc1ccc2[nH]nc(-c3ccc(N4CCOCC4)cc3)c2c1)C(c1ccsc1)N1CCCC1` (stereo not shown) [Example A4, N-(3-(4-morpholinophenyl)-1H-indazol-5-yl)-2-(pyrrolidin-1-yl)-2-(thiophen-3-yl)acetamide]: the IC50 on human TTK, at human PLK4 and at Aurora B was no more than 5 µM throughout. Also, the GI50 in experiment [1] is no more than 5 µM; in experiment [2], no more than 5 µM; in experiment [3], no more than 5 µM; in the experiment on HT29 colon cancer cells it was no more than 5 µM; in experiment [4] it was 5 to 20 µM; in [5] it was no more than 5 µM. In [6], the GI50 was no more than 5 µM.
Regarding `O=C(NC(c1ccccc1)C1CC1)c1ccc2[nH]nc(-c3ccc(N4CCOCC4)cc3)c2c1` (stereo not shown) [Example A12, N-(cyclopropyl(phenyl)methyl)-3-(4-morpholinophenyl)-1H-indazole-5-carboxamide], the IC50 on human TTK, on human PLK4 and on Aurora B was no more than 5 µM in each case. Moreover, the 50% growth inhibitory concentration (GI50) in [2], in experiment [3], in [5] and in experiment [6] was no more than 5 µM in each case.
With `CN1CCC(Nc2ccc(-c3n[nH]c4ccc(NC(=O)C(c5ccsc5)N5CCCC5)cc34)cc2)CC1` (stereo not shown) [Example A25], the IC50 on human TTK, at human PLK4 and at Aurora B was no more than 5 µM throughout. In addition, the GI50 (in experiment [1]; in experiment [2]; in experiment [3]; in the experiment on HT29 colon cancer cells; in [4]; in [5]) was no more than 5 µM in each case. Also, the GI50 in experiment [6] is no more than 5 µM.
As to `CO[C@@H](C(=O)Nc1ccc2[nH]nc(-c3ccc(OC4CCN(C)CC4)cc3)c2c1)c1ccccc1` [Example A27, (R)-2-methoxy-N-(3-(4-((1-methylpiperidin-4-yl)oxy)phenyl)-1H-indazol-5-yl)-2-phenylacetamide], the IC50 on human TTK, at human PLK4 and at Aurora B was no more than 5 µM in each case. Besides, the GI50 is 5 to 20 µM in experiment [1]; no more than 5 µM in experiment [2]; no more than 5 µM in experiment [3]; no more than 5 µM with HT29 colon cancer cells; 5 to 20 µM in experiment [4]; no more than 5 µM in experiment [5]. For the same molecule, the GI50 in experiment [6] was no more than 5 µM.
As to `O=C(Nc1ccc2[nH]nc(-c3ccc(OC4CCOCC4)cc3)c2c1)C(c1ccsc1)N1CCCC1` (stereo not shown) [Example A29, 2-(pyrrolidin-1-yl)-N-(3-(4-((tetrahydro-2H-pyran-4-yl)oxy)phenyl)-1H-indazol-5-yl)-2-(thiophen-3-yl)acetamide], the IC50 at human TTK, on human PLK4 and at Aurora B was no more than 5 µM throughout. The 50% growth inhibitory concentration (GI50) in [1] is 5 to 20 µM; in experiment [2] it was no more than 5 µM; in experiment [3] it was no more than 5 µM; in the experiment on HT29 colon cancer cells, no more than 5 µM; in [4] it was 5 to 20 µM; in experiment [5], no more than 5 µM. In addition, the GI50 in experiment [6] is no more than 5 µM.
`CN1CCC(Oc2ccc(-c3n[nH]c4ccc(C(=O)NC(c5ccsc5)C5CC5)cc34)cc2)CC1` (stereo not shown) [Example A33, N-(cyclopropyl(thiophen-3-yl)methyl)-3-(4-((1-methylpiperidin-4-yl)oxy)phenyl)-1H-indazole-5-carboxamide]: the IC50 on human TTK, on human PLK4 and on Aurora B was no more than 5 µM in each case. Also, the GI50 (in [1]; in [2]; in [3]; with HT29 colon cancer cells; in experiment [4]; in experiment [5]) was no more than 5 µM throughout. Also, the GI50 in [6] was no more than 5 µM.
On to `O=C(NC(c1ccsc1)C1CC1)c1ccc2[nH]nc(-c3ccc(N4CCOCC4)cc3)c2c1` (stereo not shown) [Example A35, N-(cyclopropyl(thiophen-3-yl)methyl)-3-(4-morpholinophenyl)-1H-indazole-5-carboxamide], for which the IC50 at human TTK, at human PLK4 and on Aurora B was no more than 5 µM each time. Also, the GI50 (in experiment [1]; in experiment [2]; in [3]; in the experiment on HT29 colon cancer cells; in experiment [4]; in experiment [5]) was no more than 5 µM in each case. Besides, the GI50 in [6] is no more than 5 µM.
In the case of `C[C@H]1CCCN1[C@H](C(=O)Nc1ccc2[nH]nc(-c3ccc(OC4CCN(C)CC4)cc3)c2c1)c1ccsc1` [Example A41, (S)—N-(3-(4-((1-methylpiperidin-4-yl)oxy)phenyl)-1H-indazol-5-yl)-2-((S)-2-methylpyrrolidin-1-yl)-2-(thiophen-3-yl)acetamide], the IC50 at human TTK, on human PLK4 and on Aurora B was no more than 5 µM throughout. Besides, the GI50 (in experiment [2]; in experiment [3]; in the experiment on HT29 colon cancer cells; in experiment [4]; in experiment [5]; in experiment [6]) was no more than 5 µM throughout.
As for `CN1CCC(Oc2ccc(-c3n[nH]c4ccc(C(=O)NC(c5ccccc5)C5CCCC5)cc34)cc2)CC1` (stereo not shown) [Example A159, N-(cyclopentyl(phenyl)methyl)-3-(4-((1-methylpiperidin-4-yl)oxy)phenyl)-1H-indazole-5-carboxamide], the IC50 at human TTK, at human PLK4 and at Aurora B was no more than 5 µM each time. Further, the GI50 (in experiment [1]; in [2]; in experiment [3]; with HT29 colon cancer cells; in experiment [7]; in experiment [4]) was no more than 5 µM in each case.
Consider `COCCN1CCC(Oc2ccc(-c3n[nH]c4ccc(C(=O)NC(c5ccccc5)C5CCCC5)cc34)cc2)CC1` (stereo not shown) [Example A161, N-(cyclopentyl(phenyl)methyl)-3-(4-((1-(2-methoxyethyl)piperidin-4-yl)oxy)phenyl)-1H-indazole-5-carboxamide], for which the IC50 on human TTK, at human PLK4 and on Aurora B was no more than 5 µM each time. Further, the GI50 (in experiment [1]; in experiment [2]; in [3]; in the experiment on HT29 colon cancer cells; in experiment [7]; in experiment [4]) was no more than 5 µM in each case.
